In US20240101570A1 (AMGEN INC., priority 2020, published 2024):

Tests used:
HCT116 MTAP null cells = test: HCT116 MTAP null cell proliferation / viability (CellTiter-Glo, 6 days); type: cell-based; details: HCT116-MTAP null, 144 h, HCT116 MTAP null cells, 6 days, CellTiter-Glo; read-out: HCT-116 MTAP null IC50
Summary of the method: (§1)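 IC50 values derive from sigmoidal dose-response fits, some with Hill slope fixed at −1 and top constrained to 100%, others from 4-parameter logistic models. They reflect CellTiter-Glo viability after 6 days of compound exposure at up to 10 or 50 μM.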

HCT116 WT cells = test: HCT116 WT cell proliferation / viability (CellTiter-Glo, 6 days); type: cell-based; details: Homo sapiens, HCT-116, 144 h, HCT116 WT cells, 6 days, CellTiter-Glo; read-out: HCT-116 WT IC50
Summary of the method: as §1

Row | SMILES | IC50 (HCT116 MTAP null cells) | IC50 (HCT116 WT cells)
1 | C[C@@H](c1ccc(C(F)(F)F)nn1)N(C(=O)c1cc2c(cc1Cl)nc(N)c1cnn(C)c12)C1CC1 (single isomer, unassigned) [Example 880] | 137 nM | 8.31 µM
2 | C[C@H](c1ccc(C(F)(F)F)nn1)N(C(=O)c1cc2c(cc1Cl)nc(N)c1cnn(C)c12)C1CC1 (single isomer, unassigned) [Example 881] | 7 nM | 0.37 µM
3 | Nc1nc2ccc(C(=O)N(Cc3ccc(C(F)(F)F)cn3)CC3CC3)cc2c2c1COC2 [Example 300, 4-amino-N-(cyclopropylmethyl)-N-[[5-(trifluoromethyl)-2-pyridyl]methyl]-1,3-dihydrofuro[3,4-c]quinoline-8-carboxamide] | 41 nM | 1.34 µM
4 | COC[C@@H](C)N(Cc1ccc(Cl)nn1)C(=O)c1ccc2nc(N)c3c(c2c1)COC3 [Example 305, 4-amino-N-((6-chloro-3-pyridazinyl)methyl)-N-((2R)-1-methoxy-2-propanyl)-1,3-dihydrofuro[3,4-c]quinoline-8-carboxamide] | 27 nM | 0.861 µM
5 | COC[C@@H](C)N(Cc1ccc(Cl)nn1)C(=O)c1cc2c3c(c(N)nc2cn1)[C@@H](C)OC3 [Example 308, (3R)-4-amino-N-((6-chloro-3-pyridazinyl)methyl)-N-((2R)-1-methoxy-2-propanyl)-3-methyl-1,3-dihydrofuro[3,4-c][1,7]naphthyridine-8-carboxamide] | 124 nM | 5.09 µM
6 | CC(C)N(Cc1ccc(C(F)(F)F)cn1)C(=O)c1cc2c3c(c(N)nc2cn1)[C@@H](C)OC3 [Example 310, (3R)-4-amino-3-methyl-N-(2-propanyl)-N-((5-(trifluoromethyl)-2-pyridinyl)methyl)-1,3-dihydrofuro[3,4-c][1,7]naphthyridine-8-carboxamide] | 71 nM | 4.05 µM
7 | C[C@H]1OCc2c1c(N)nc1cnc(C(=O)N(C)Cc3ccc(C#N)cn3)cc21 [Example 312, (3R)-4-amino-N-((5-cyano-2-pyridinyl)methyl)-N,3-dimethyl-1,3-dihydrofuro[3,4-c][1,7]naphthyridine-8-carboxamide] | 1090 nM | > 10 µM
8 | CC(C)N(Cc1ccc(C(F)(F)F)nn1)C(=O)c1cc2c3c(c(N)nc2cn1)[C@@H](C)OC3 [Example 313, (3R)-4-amino-3-methyl-N-(2-propanyl)-N-((6-(trifluoromethyl)-3-pyridazinyl)methyl)-1,3-dihydrofuro [3,4-c][1,7]naphthyridine-8-carboxamide] | 200 nM | 3.68 µM
9 | C[C@H]1OCc2c1c(N)nc1cnc(C(=O)N(Cc3ccc(C(F)(F)F)cn3)C3CC3)cc21 [Example 315, (3R)-4-amino-N-cyclopropyl-3-methyl-N-((5-(trifluoromethyl)-2-pyridinyl)methyl)-1,3-dihydrofuro[3,4-c][1,7]naphthyridine-8-carboxamide] | 137 nM | 11.1 µM
10 | C[C@H]1OCc2c1c(N)nc1cnc(C(=O)N(Cc3ccc(C#N)cn3)C3CC3)cc21 [Example 316, (3R)-4-amino-N-((5-cyano-2-pyridinyl)methyl)-N-cyclopropyl-3-methyl-1,3-dihydrofuro[3,4-c][1,7]naphthyridine-8-carboxamide] | 570 nM | 23.7 µM
11 | C[C@H]1OCc2c1c(N)nc1cnc(C(=O)N(C)Cc3ccc(C(F)(F)F)nn3)cc21 [Example 317, (3R)-4-amino-N,3-dimethyl-N-((6-(trifluoromethyl)-3-pyridazinyl)methyl)-1,3-dihydrofuro [3,4-c][1,7]naphthyridine-8-carboxamide] | 432 nM | 49.7 µM
12 | Nc1nc2ncc(C(=O)N(Cc3ccc(C(F)(F)F)cn3)CC3CC3)cc2c2c1COC2 [Example 321, 4-amino-N-(cyclopropylmethyl)-N-((5-(trifluoromethyl)-2-pyridinyl)methyl)-1,3-dihydrofuro[3,4-c][1,8]naphthyridine-8-carboxamide] | 226 nM | 3.79 µM
13 | COC[C@@H](C)N(Cc1ccc(C(F)(F)F)cn1)C(=O)c1cnc2nc(N)c3c(c2c1)COC3 [Example 322, 4-amino-N-((2R)-1-methoxy-2-propanyl)-N-((5-(trifluoromethyl)-2-pyridinyl)methyl)-1,3-dihydrofuro[3,4-c][1,8]naphthyridine-8-carboxamide] | 81 nM | 1.03 µM
14 | CN(Cc1ccc(C2CC2)cn1)C(=O)c1ccc2nc(N)c3c(c2c1)COC3 [Example 323, 4-amino-N-((5-cyclopropyl-2-pyridinyl)methyl)-N-methyl-1,3-dihydrofuro[3,4-c]quinoline-8-carboxamide] | 358 nM | 15 µM
15 | CN(Cc1ccc(C#N)cn1)C(=O)c1ccc2nc(N)c3c(c2c1)COC3 [Example 324, 4-amino-N-((5-cyano-2-pyridinyl)methyl)-N-methyl-1,3-dihydrofuro[3,4-c]quinoline-8-carboxamide] | 908 nM | 51.6 µM
16 | N#Cc1ccc(CN(CC2CC2)C(=O)c2ccc3nc(N)c4c(c3c2)COC4)nc1 [Example 325, 4-amino-N-((5-cyano-2-pyridinyl)methyl)-N-(cyclopropylmethyl)-1,3-dihydrofuro[3,4-c]quinoline-8-carboxamide] | 73 nM | 2.28 µM
17 | C[C@H]1OCc2c1c(N)nc1ccc(C(=O)N(Cc3ccc(Br)nn3)CC3CC3)cc21 [Example 326, (3R)-4-amino-N-((6-bromo-3-pyridazinyl)methyl)-N-(cyclopropylmethyl)-3-methyl-1,3-dihydrofuro[3,4-c]quinoline-8-carboxamide] | 19 nM | 1.28 µM

The remaining compounds from weak to strong by IC50 (HCT116 MTAP null cells), led by results:

Row | IC50 (HCT116 MTAP null cells) | IC50 (HCT116 WT cells) | SMILES
18 | 27700 nM | > 50 µM | C[C@@H]1OCc2c1c(N)nc1cnc(C(=O)N(C)Cc3ccc(C(F)(F)F)nn3)cc21 [Example 319, (3S)-4-amino-N,3-dimethyl-N-((6-(trifluoromethyl)-3-pyridazinyl)methyl)-1,3-dihydrofuro[3,4-c][1,7]naphthyridine-8-carboxamide]
19 | 4930 nM | 36.3 µM | C[C@@H]1OCc2c1c(N)nc1cnc(C(=O)N(Cc3ccc(C(F)(F)F)cn3)C3CC3)cc21 [Example 318, (3S)-4-amino-N-cyclopropyl-3-methyl-N-((5-(trifluoromethyl)-2-pyridinyl)methyl)-1,3-dihydrofuro[3,4-c][1,7]naphthyridine-8-carboxamide]
20 | 4000 nM | > 10 µM | C[C@@H]1OCc2c1c(N)nc1cnc(C(=O)N(Cc3ccc(C(F)(F)F)cn3)C34CC(C3)C4)cc21 [Example 309, (3S)-4-amino-N-(bicyclo[1.1.1]pentan-1-yl)-3-methyl-N-((5-(trifluoromethyl)-2-pyridinyl)methyl)-1,3-dihydrofuro[3,4-c][1,7]naphthyridine-8-carboxamide]
21 | 900 nM | 17.3 µM | CC(C)N(Cc1ccc(C2CC2)nc1)C(=O)c1ccc2nc(N)c3c(c2c1)COC3 [Example 302, 4-amino-N-((6-cyclopropyl-3-pyridinyl)methyl)-N-(2-propanyl)-1,3-dihydrofuro[3,4-c]quinoline-8-carboxamide]
22 | 811 nM | > 10 µM | CN(Cc1ccc(Br)nn1)C(=O)c1ccc2nc(N)c3c(c2c1)COC3 [Example 327, 4-amino-N-((6-bromo-3-pyridazinyl)methyl)-N-methyl-1,3-dihydrofuro[3,4-c]quinoline-8-carboxamide]
23 | 303 nM | 15.8 µM | C[C@H]1OCc2c1c(N)nc1cnc(C(=O)N(Cc3ccc(C(F)(F)F)cn3)CC(F)(F)F)cc21 [Example 320, (3R)-4-amino-3-methyl-N-(2,2,2-trifluoroethyl)-N-((5-(trifluoromethyl)-2-pyridinyl)methyl)-1,3-dihydrofuro [3,4-c][1,7]naphthyridine-8-carboxamide]
24 | 259 nM | 11 µM | CC(C)N(Cc1ccc(C#N)cn1)C(=O)c1ccc2nc(N)c3c(c2c1)COC3 [Example 301, 4-amino-N-((5-cyano-2-pyridinyl)methyl)-N-(2-propanyl)-1,3-dihydrofuro[3,4-c]quinoline-8-carboxamide]
25 | 217 nM | 7.99 µM | COC[C@@H](C)N(Cc1ccc(Cl)nn1)C(=O)c1cc2c3c(c(N)nc2cn1)COC3 [Example 306, 4-amino-N-((6-chloro-3-pyridazinyl)methyl)-N-((2R)-1-methoxy-2-propanyl)-1,3-dihydrofuro[3,4-c][1,7]naphthyridine-8-carboxamide]
26 | 129 nM | 19.4 µM | C[C@H]1OCc2c1c(N)nc1ccc(C(=O)N(C)Cc3ccc(Br)cn3)cc21 [Example 328, (3R)-4-amino-N-((5-bromo-2-pyridinyl)methyl)-N,3-dimethyl-1,3-dihydrofuro[3,4-c]quinoline-8-carboxamide]
27 | 56 nM | 2.21 µM | C[C@H]1OCc2c1c(N)nc1cnc(C(=O)N(Cc3ccc(C(F)(F)F)cn3)C34CC(C3)C4)cc21 [Example 311, (3R)-4-amino-N-(bicyclo[1.1.1]pentan-1-yl)-3-methyl-N-((5-(trifluoromethyl)-2-pyridinyl)methyl)-1,3-dihydrofuro[3,4-c][1,7]naphthyridine-8-carboxamide]
28 | 22 nM | 0.16 µM | C[C@H](c1ncccn1)N(Cc1ccc(C2CC2)nn1)C(=O)c1ccc2nc(N)c3c(c2c1)CO[C@@H]3C [Example 329, (3R)-4-amino-N-((6-cyclopropyl-3-pyridazinyl)methyl)-3-methyl-N-((1R)-1-(2-pyrimidinyl)ethyl)-1,3-dihydrofuro[3,4-c]quinoline-8-carboxamide]
29 | 18 nM | 0.471 µM | COC[C@@H](C)N(Cc1ccc(Cl)nn1)C(=O)c1ccc2nc(N)c3c(c2c1)CO[C@@H]3C [Example 307, (3R)-4-amino-N-((6-chloro-3-pyridazinyl)methyl)-N-((2R)-1-methoxy-2-propanyl)-3-methyl-1,3-dihydrofuro[3,4-c]quinoline-8-carboxamide]
